These results are taken from ChEMBL document CHEMBL4052601, “Glycybridins A-K, Bioactive Phenolic Compounds from Glycyrrhiza glabra” (J Nat Prod, 2017).

Assay [1] concerns the target T1, Tyrosinase (Homo sapiens) (UniProt P14679).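 Also: tyrosinase of unspecified origin acting on L-tyrosine, compound preincubated with enzyme for 15 min before adding substrate, inhibition expressed versus control.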
T1 sequence (whole entry): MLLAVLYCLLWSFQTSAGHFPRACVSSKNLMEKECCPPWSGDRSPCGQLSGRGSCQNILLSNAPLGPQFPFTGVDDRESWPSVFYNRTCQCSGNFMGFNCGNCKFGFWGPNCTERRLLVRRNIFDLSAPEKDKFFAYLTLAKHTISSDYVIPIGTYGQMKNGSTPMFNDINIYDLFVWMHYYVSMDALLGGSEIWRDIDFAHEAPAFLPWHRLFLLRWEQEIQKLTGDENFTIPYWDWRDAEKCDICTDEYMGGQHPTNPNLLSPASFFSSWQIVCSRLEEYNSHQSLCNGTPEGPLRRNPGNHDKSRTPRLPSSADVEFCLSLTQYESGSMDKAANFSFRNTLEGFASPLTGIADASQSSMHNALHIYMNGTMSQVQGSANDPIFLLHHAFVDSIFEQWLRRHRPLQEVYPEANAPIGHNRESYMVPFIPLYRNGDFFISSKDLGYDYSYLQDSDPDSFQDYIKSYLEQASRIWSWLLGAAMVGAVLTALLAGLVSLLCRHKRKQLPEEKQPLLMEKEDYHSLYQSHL
The following applies: at 10 µM.
Description: Inhibition of tyrosinase (unknown origin) using L-tyrosine as substrate at 10 uM preincubated for 15 mins followed by substrate addition relative to control

The subject of assay [2] is RAW264.7. Description: Antiinflammatory activity against mouse RAW264.7 cells assessed as inhibition of LPS-induced nitric oxide production at 10 uM after 24 hrs by Griess assay relative to control. The following applies: RAW264.7, 24 h. The class given is functional. In general terms: Griess reagent forms a coloured azo dye with nitrite.
The target of assay [3] is T2, Tyrosine-protein phosphatase non-receptor type 1 (Homo sapiens) (UniProt P18031).
T2 sequence (whole entry): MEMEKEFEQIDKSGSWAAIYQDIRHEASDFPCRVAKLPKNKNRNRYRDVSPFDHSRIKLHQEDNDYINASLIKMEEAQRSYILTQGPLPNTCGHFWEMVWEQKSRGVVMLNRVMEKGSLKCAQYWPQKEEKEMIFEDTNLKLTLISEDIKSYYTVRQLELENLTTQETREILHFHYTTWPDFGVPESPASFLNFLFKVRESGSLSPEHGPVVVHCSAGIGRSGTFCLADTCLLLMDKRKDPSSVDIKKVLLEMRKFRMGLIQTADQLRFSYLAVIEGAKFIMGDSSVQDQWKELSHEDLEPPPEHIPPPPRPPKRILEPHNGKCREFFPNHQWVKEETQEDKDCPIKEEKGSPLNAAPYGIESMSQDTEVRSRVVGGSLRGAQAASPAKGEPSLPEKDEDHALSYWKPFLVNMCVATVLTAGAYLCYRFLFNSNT
The experiment in a line: (§1) Inhibition of recombinant human PTP1B using pNPP as substrate after 30 mins.

For assay [4], the target named is T3, Tyrosine-protein phosphatase non-receptor type 1 (Homo sapiens, UniProt P18031).
T3 sequence (P18031 whole entry): T2 sequence (whole entry)
The assay is described as §1.

For assay [5], the system named is Homo sapiens. The experiment in a line: Inhibition of LPS-induced NF-kappaB (unknown origin) transactivation expressed in human SW480 cells at 10 uM administered 1 hr after LPS stimulation measured after 6 hrs by luciferase reporter gene assay relative to control. The format is cell-based. On the technique in general: A reporter such as luciferase makes a cellular process visible.

Assay [6] concerns HepG2. Description: Antiproliferative activity against human HepG2 cells at 10 uM after 24 hrs by MTS assay relative to control. The following applies: HepG2, 24 h. The format is functional. (In general: Tetrazolium assays rely on reduction of a dye to a coloured formazan, in cell work by metabolically active cells.)
The test system of assay [7] is MCF7. Description: Antiproliferative activity against human MCF7 cells at 10 uM after 24 hrs by MTS assay relative to control. The format is functional. Conditions: MCF7, 24 h.
For assay [8], the system named is SW480. Description: Antiproliferative activity against human SW480 cells at 10 uM after 24 hrs by MTS assay relative to control. Conditions: SW480, 24 h. The format is functional.
The target of assay [9] is T2, Tyrosine-protein phosphatase non-receptor type 1 (Homo sapiens). The following applies: at 10 µM.
Description: Inhibition of recombinant human PTP1B using pNPP as substrate at 10 uM after 30 mins relative to control
Assay [10] concerns A549. Description: Antiproliferative activity against human A549 cells at 10 uM after 24 hrs by MTS assay relative to control. The following applies: A549, 24 h. The class given is functional.

Structures are written as SMILES.

On to `CC(C)=CCc1cc([C@@H]2CC(=O)c3ccc4c(c3O2)C=CC(C)(C)O4)ccc1O` [SHINFLAVANONE], for which the inhibition in [1] is 3.2%; in assay [3], “Dose-dependent effect”; in assay [5], 15.5%; in assay [9], 62.6%. The inhibition at 10 µM in assay [2] amounted to 11.3%; in assay [6], 16.9%; in assay [7], 36.5%; in assay [8], 25%; in [10], 5.1%. For the same compound, the IC50 in [4] fell in the range of 5 to 7.9 µM.

Turning to `CC(C)=CCc1c(O)ccc([C@@H]2COc3c(ccc4c3C=CC(C)(C)O4)C2)c1O` [HISPAGLABRIDIN A], the inhibition in assay [1] is 0%; in assay [3], “Dose-dependent effect”; in assay [5], 13.3%; in assay [9], 80.3%. Also, the inhibition at 10 µM stood at 4% in assay [2]; 26.7% in assay [6]; 21.9% in assay [7]; 34.9% in [8]; 47.6% in [10]. Moreover, the IC50 in assay [4] fell in the range of 5 to 7.9 µM.

For the compound `CC(C)=CCc1c(O)ccc(C(=O)/C=C/c2cc(O)c3c(c2)C=CC(C)(C)O3)c1O`, the inhibition in assay [1] stood at 0%; in assay [5], 23.1%; in assay [9], 47.1%. Also, the inhibition at 10 µM in assay [2] is 2%; in assay [6], 21.7%; in assay [7], 72%; in [8], 34.7%; in assay [10], 10.9%.

As for `CC1(C)C=Cc2c(ccc([C@@H]3COc4c(ccc5c4C=CC(C)(C)O5)C3)c2O)O1` [HISPAGLABRIDIN B], the results for the inhibition in assay [1], in assay [5] and in assay [9] were 0%, 0% and 42%, respectively. For the same compound, the inhibition at 10 µM worked out at 10.5% in assay [2]; 45.9% in assay [6]; 38.3% in assay [7]; 47.9% in [8]; 34.3% in assay [10].

For the compound `CC(C)=CCc1cc([C@H]2Oc3c(ccc(O)c3CC=C(C)C)C(=O)C2O)ccc1O` (stereo not given in full), the values for the inhibition in assay [1], in assay [5] and in [9] were 0.8%, 37% and 43.9%, respectively. Moreover, the inhibition at 10 µM in assay [2] came to 0%; in assay [6], 39%; in assay [7], 33.2%; in assay [8] it was 25.2%; in [10], 24.8%.

Regarding `CC(C)=CCc1c(O)ccc(C(=O)/C=C/c2ccc(O)cc2)c1O` [ISOBAVACHALCONE], the inhibition in assay [1] came to 18.4%; in assay [5], 13.2%; in assay [9], 16%. In addition, the inhibition at 10 µM in assay [2] was 7.5%; in [6], 27.3%; in assay [7], 15.6%; in assay [8], 46.7%; in assay [10], 3.5%.

Regarding `CC1(C)C=Cc2c(ccc3c(=O)c(Oc4ccc(O)cc4O)coc23)O1`, the values for the inhibition in [1], in assay [5] and in [9] were 2.4%, 18.1% and 12.8%, respectively. Besides, the inhibition at 10 µM in [2] amounted to 6.3%; in assay [6], 29.9%; in [7] it was 2.6%; in assay [8] it was 7.1%; in assay [10], 0%.

Take `COc1ccc(C2(O)COc3c(ccc(O)c3CC=C(C)C)C2=O)c(O)c1` (stereo not given): the inhibition in assay [1] stood at 13.6%; in assay [5] it was 13.7%; in assay [9], 10.1%. Moreover, the inhibition at 10 µM turned out to be 5.5% in assay [2]; 1.6% in assay [6]; 2.8% in [7]; 4.2% in [8]; 39.1% in assay [10].

With `O=C(/C=C/c1ccc(O)cc1)c1ccc(O)cc1O` [ISOLIQUIRITIGENIN], the inhibition in assay [1] turned out to be 15.3%; in assay [5], 17.1%; in [9] it was 14.2%. Also, the inhibition at 10 µM in assay [2] turned out to be 21%; in [6], 6.5%; in assay [7], 65.6%; in assay [8], 29.1%; in [10], 8.3%.

With `CC(C)=CCc1c(O)ccc2c1OC[C@@H](c1ccc3c(c1O)C=CC(C)(C)O3)C2`, the inhibition was 12.9% in [1], 40.2% in assay [5] and 5.5% in [9]. Besides, the inhibition at 10 µM in [2] amounted to 3.6%; in assay [6] it was 15.9%; in [7], 60.9%; in assay [8], 20.2%; in assay [10] it was 10.2%.

As for `CC1(C)C=Cc2c(cc(O)c3c(=O)c(-c4ccc(O)cc4)coc23)O1` [DERRONE], the inhibition came to 11% in assay [1], 30.8% in assay [5] and 21% in assay [9]. Moreover, the inhibition at 10 µM in assay [2] is 0%; in [6] it was 23.7%; in assay [7], 13.6%; in [8], 0%; in assay [10] it was 0%.

Take `CC1(C)C=Cc2c(cc(O)c3c2OCC(c2ccc(O)cc2O)C3=O)O1` (stereo not given): the inhibition in assay [1] is 35.6%; in [5], 0.1%; in assay [9], 58.5%. Besides, the inhibition at 10 µM in assay [2] came to 1.9%; in assay [6] it was 37.6%; in assay [7], 12.7%; in assay [8], 29.6%; in assay [10], 4.3%.

Regarding `O=C1C[C@@H](c2ccc(O)cc2)Oc2cc(O)cc(O)c21` [NARINGENIN], the inhibition in assay [1] was found to be 2.2%; in [5] it was 0%; in assay [9], 4.1%. In addition, the inhibition at 10 µM in assay [2] amounted to 0%; in assay [6], 34.5%; in [7], 16.8%; in assay [8] it was 0%; in assay [10], 0.3%.

In the case of `CC(C)=CCc1cc(C[C@@H](O)C(=O)c2ccc(O)cc2O)ccc1O`, the values for the inhibition in assay [1], in assay [5] and in [9] were 10.3%, 23% and 0.2%, respectively. Moreover, the inhibition at 10 µM in assay [2] worked out at 7.1%; in [6] it was 7.2%; in assay [7], 29.5%; in [8], 4.2%; in assay [10], 6.1%.

Regarding `CC1(C)C=Cc2c(ccc3c2OCc2c-3oc3cc(O)ccc23)O1`, the figures for the inhibition in assay [1], in [5] and in assay [9] were 26.3%, 1.4% and 18.1%, respectively. Also, the inhibition at 10 µM came to 7.4% in assay [2]; 0% in [6]; 33.7% in [7]; 1.1% in assay [8]; 0% in [10].

On to `CC1(C)C=Cc2c(O)ccc(-c3cc4ccc(O)cc4o3)c2O1`, for which the inhibition in assay [1] stood at 12.5%; in [5] it was 32.2%; in assay [9] it was 1.3%. In addition, the inhibition at 10 µM in assay [2] turned out to be 48.9%; in assay [6], 0%; in assay [7] it was 9.7%; in assay [8] it was 6.4%; in assay [10] it was 6.5%.

For the compound `CC1(C)C=Cc2c(cc(O)c3c(=O)c(-c4ccc(O)cc4O)coc23)O1`, the inhibition in assay [1] stood at 28.7%; in assay [5], 0%; in assay [9] it was 57.6%. Besides, the inhibition at 10 µM in assay [2] came to 5.6%; in assay [6] it was 12.7%; in [7], 12.7%; in assay [8] it was 29.6%; in assay [10] it was 4.3%.

As a reminder, the inhibition is the share of the control response that was lost under treatment. As a reminder, the IC50 is the midpoint of a concentration-inhibition curve.
